Here are results for three molecules from US12534472B2, “Morphic forms of trilaciclib and methods of manufacture thereof” (Pharmacosmos Holding A/S, priority 2020, dated 2026).

Format in all cases: physicochemical
The nature of data set [1]: Solvent solubility screen (approximate solubility). The protocol: The solvent solubility experiment was carried out using various solvents to determine solid formation. A known volume aliquot (typically 5 volumes) of solvent was added to approximately 10 mg of amorphous Compound 1 as a dihydrochloride. Between each addition, the mixture was checked for dissolution and where no dissolution was apparent, the mixture was heated to ca. 40° C. and checked again. This procedure was continued until dissolution was observed or until 100 volumes of solvent had been added. All observed solids were isolated and analyzed by XRPD.
Examples of solvents include, but are not limited to, 1,4 dioxane, methanol, ethanol, propanol, butanol, butanone, ethoxyethanol, trifluoroethanol, methyl-THF, acetone, acetonitrile, anisole, chlorobenzene, DMSO, DMF, cumene, dichloromethane, ethyl acetate, ethylene glycol, heptane, isopropyl acetate, nitromethane, n-methylpyrrolidone, MIBK, t-BME, tetrahydrofuran, toluene, water and mixtures thereof. The above technique was used to generate the images in FIG. 8, FIG. 9, FIG. 10, FIG. 11, FIG. 12, FIG. 14.

A short description of data set [2]: Thermodynamic solubility in water at pH 4.2. To be noted: for Observations at T = 24 hours: 30 mg/mL in water at pH 4.2, agitated at ambient temperature ca. 24 hours; for Observations at T = 0 hours: 30 mg/mL in water at pH 4.2, ambient temperature. The procedure: Thermodynamic solubility was carried out for Pattern 1, Pattern 2/6 mixture, Pattern 3, amorphous di-HCl salts and Pattern 7 in water at pH 4.2. All samples were prepared at 30 mg/mL. Initial observations were made. The samples were agitated at ambient temperature for ca. 24 hours. The samples were collected and observations made. Observed solids were isolated via centrifugation. The mother liquor from the filtered sample was analyzed by HPLC. The pH 4.3 solution was prepared by diluting glacial acetic acid (11.6 mL) to 100 mL in deionized water, then adding sodium acetate (1.07 g) and acetic acid solution (5.9 mL) preparing up to 500 mL with deionized water; then the pH was adjusted to 4.2. The above technique was used to generate the images in FIG. 60.

Data set [3] in a line: Solubility of trilaciclib (general statement).

As to `CN1CCN(c2ccc(Nc3ncc4cc5n(c4n3)C3(CCCCC3)CNC5=O)nc2)CC1.Cl.Cl` [Amorphous Di-HCl], the “Approx. Solubility” value was <5000 µg/mL in data set [1] (1,4-Dioxane, heated to ca. 40° C. where no dissolution); <5000 µg/mL in data set [1] (1-Butanol, heated to ca. 40° C. where no dissolution); >200000 µg/mL in data set [1] (2,2,2-Trifluoroethanol); <5000 µg/mL in data set [1] (2-Butanone, heated to ca. 40° C. where no dissolution); <5000 µg/mL in data set [1] (2-Ethoxyethanol, heated to ca. 40° C. where no dissolution); <5000 µg/mL in data set [1] (2-Methyl THF, heated to ca. 40° C. where no dissolution). Besides, the “Approx. Solubility” value in data set [1] (2-Propanol, heated to ca. 40° C. where no dissolution) was “ca 5 mg/mL”; in data set [1] (Acetone, heated to ca. 40° C. where no dissolution), <5000 µg/mL; in data set [1] (Acetonitrile/water (90:10% v/v), heated to ca. 40° C. where no dissolution) it was <5000 µg/mL; in data set [1] (Acetonitrile, heated to ca. 40° C. where no dissolution) it was <5000 µg/mL; in data set [1] (Anisole, heated to ca. 40° C. where no dissolution), <5000 µg/mL; in data set [1] (Chlorobenzene, heated to ca. 40° C. where no dissolution) it was <5000 µg/mL. Further, the “Approx. Solubility” value was “ca 5 mg/mL” in data set [1] (Cumene, heated to ca. 40° C. where no dissolution); <5000 µg/mL in data set [1] (DMF, heated to ca. 40° C. where no dissolution); “ca 5 mg/mL” in data set [1] (DMSO, heated to ca. 40° C. where no dissolution); >200000 µg/mL in data set [1] (Deionized Water); <5000 µg/mL in data set [1] (Dichloromethane, heated to ca. 40° C. where no dissolution); <5000 µg/mL in data set [1] (Ethanol/water (85:15% v/v), heated to ca. 40° C. where no dissolution). Also, the “Approx. Solubility” value in data set [1] (Ethanol, heated to ca. 40° C. where no dissolution) is “ca 5 mg/mL”; in data set [1] (Ethyl Acetate, heated to ca. 40° C. where no dissolution) it was <5000 µg/mL; in data set [1] (Ethylene glycol), 50000 µg/mL; in data set [1] (Heptane, heated to ca. 40° C. where no dissolution) it was <5000 µg/mL; in data set [1] (Isopropyl acetate, heated to ca. 40° C. where no dissolution) it was <5000 µg/mL; in data set [1] (Methanol/water (95:5% v/v)) it was 20000 µg/mL. The “Approx. Solubility” value in data set [1] (Methanol, heated to ca. 40° C. where no dissolution) was “ca 5 mg/mL”; in data set [1] (Methyl isobutyl ketone, heated to ca. 40° C. where no dissolution) it was <5000 µg/mL; in data set [1] (N-Methylpyrrolidone, heated to ca. 40° C. where no dissolution), <5000 µg/mL; in data set [1] (Nitromethane), 33000 µg/mL; in data set [1] (Tetrahydrofuran/water (99:1% v/v), heated to ca. 40° C. where no dissolution), <5000 µg/mL; in data set [1] (Tetrahydrofuran, heated to ca. 40° C. where no dissolution), <5000 µg/mL. Further, the “Approx. Solubility” value in data set [1] (Toluene, heated to ca. 40° C. where no dissolution) was <5000 µg/mL; in data set [1] (t-Butylmethyl ether, heated to ca. 40° C. where no dissolution), <5000 µg/mL. Besides, in data set [2], the “Observations at T = 24 hours” value is on record as “Yellow solution”. Further, in data set [2], the “Observations at T = 0 hours” value is “Yellow solution (dissolved”.
Turning to `CN1CCN(c2ccc(Nc3ncc4cc5n(c4n3)C3(CCCCC3)CNC5=O)nc2)CC1` [Pattern 7, 2′-((5-(4-methylpiperazin-1-yl)pyridin-2-yl)amino)-7′,8′-dihydro-6′H-spiro[cyclohexane-1,9′-pyrazino[1′,2′:1,5]pyrrolo[2,3-d]pyrimidin]-6′-one], in data set [2], the “Observations at T = 24 hours” value is listed as “Off-white slurry” and the “Observations at T = 0 hours” value is on record as “Off-white slurry”.
In the case of `CN1CCN(c2ccc(Nc3ncc4cc5n(c4n3)C3(CCCCC3)CNC5=O)nc2)CC1` [trilaciclib, 2′-((5-(4-methylpiperazin-1-yl)pyridin-2-yl)amino)-7′,8′-dihydro-6′H-spiro[cyclohexane-1,9′-pyrazino[1′,2′:1,5]pyrrolo[2,3-d]pyrimidin]-6′-one], in data set [3] (DMSO), the “solubility in DMSO” value is “practically insoluble”. In addition, in data set [3] (water), the solubility in water result is listed as “not very soluble”.
